Data set [1] relates to S. aureus ATCC 13709. As to the kind of experiment: Prophylactic model of bone infection in rats. The conditions noted are these: for prophylactic effect in rat model of bone infection, in words: Table 4 and FIGS. 6-8, doses as in Table 4; for bacterial titer compared with untreated group: 10 mg/kg IV 1 h after infection (positive control). In kind it is in vivo, rat. The procedure: To determine the activity in vivo of bisphosphonated prodrugs of fluoroquinolones, compounds 52 and 107, derivatives of parent compounds moxifloxacin 3 (for 52), and compounds 39, 44, 49, 54, 121, 129, 141, 145, 149, derivatives of parent compound gatifloxacin 15, were used in a prophylactic model for infection. Specifically, S. aureus ATCC 13709 cells were grown overnight at 37° C. in brain heart infusion broth (BHIB). Cells were subcultured into fresh BHIB and incubated for 4 to 5 h at 37° C. The cells were washed twice with phosphate-buffered saline (PBS) and resuspended in BHIB supplemented with 10% (vol./vol.) fetal bovine serum at a density of approximately 10^10 colony forming units (CFU)/ml (based upon turbidimetry). The suspension was aliquoted and a portion was used to check the CFU count. The culture was stored frozen (−80° C.) and was used without subculture. For use as an inoculum the culture was thawed, diluted in PBS and kept in an ice bath until it was used.
Animals were infected as described by O'Reilly et al. (Antimicrobial Agents and Chemotherapy (1992), 36(12): 2693-97) to generate the bone infection. Female CD rats (age, 57 to 70 days; n=5/group; Charles River, St-Constant, Canada) were anaesthetized by isofluorane before and during the surgery. Following complete induction of anesthesia, the rat was placed ventral side up and hair was shaved from the surgical site. The skin over the leg was cleaned and disinfected (proviodine-ethanol 70%). A longitudinal incision below the knee joint was made in the sagital plane. The incision was made over the bone below the “knee joint” (tibia head or condyle) but not completely extending to the ankle. A high speed drill fitted with a 2 mm bulb bit was used to drill a hole into the medullar cavity of the tibia. Rats were injected intra-tibially with 0.05 ml 5% sodium morrhuate (sclerosing agent) and then with 0.05 ml of S. aureus suspension (ca. 5×10^5 CFU/rat). The hole was sealed by applying a small amount of dry dental cement which immediately absorbs fluids and adheres to the site. The wound was closed using 3 metal skin clips. Moxifloxacin 3 (as a positive control) was injected once at 10 mg/kg intravenously 1 h postinfection in saline, while the fluoroquinolone prodrugs (prepared in 0.9% saline) were injected as a single intravenous bolus dose at different time points prior to the infection. For comparison, the parent drug (moxifloxacin 3 or gatifloxacin 15) was also injected intravenously once at a molar equivalent dose at the same time point prior the infection.
Infected rats were sacrificed by CO2 asphyxiation 24 h postinfection to monitor the bacterial CFU count. Infected tibiae were removed, dissected free of soft tissue, and weighed. The bones were ground using a metal ball mill, resuspended in 5 ml 0.9% NaCl, serially diluted and processed for quantitative cultures. For compounds 39, 44, 49, 54, 141, 145, 149, 1 ml of the 0.9% NaCl solution was added to 50 mg of charcoal before serial dilutions. Treatment efficacies were measured in terms of Log viable bacteria (Log CFU per gram of bone). The results obtained for each group of rats were evaluated by calculating the mean Log CFU and standard deviation. The limit of detection is 2 Log CFU/g of bone. Statistical comparisons of viable bacterial counts for the different treated and untreated groups were performed with Dunnett's multiple-comparison test. Differences were considered significant when the P value was <0.05 when comparing treated infected animals to the untreated infected ones.

A short description of data set [2]: Bone powder binding, fluorometric detection. The conditions noted are these: for Binding to bone (%) Fluorescence: 1 mg/ml compound, bone meal powder 10 mg/ml in PBS, 37° C., 1 h. As for the experimental part:
The ability of the example molecules to bind to bone powder was established in two parallel fashions, using either LC/MS or fluorometric detection. For LC/MS detection, a stock solution (5 mM) of the compound to be tested was added to 0.1M Tris-HCl buffer pH 7, 0.15M NaCl to reach a final concentration of 100 μM. Triplicate samples (1 mL) of the compound solutions were intensively shaken for 10 min with or without 25 mg of fresh or 20 mg of vacuum dried ground rat tibia bone. The samples were then centrifuged for 15 min at 10 000 g. The presence of unbound compound was measured by injection of 30 μL of each of the supernatants into an Agilent 1100™ LC/UV system. For fluorometric detection, an individual compound was dissolved in PBS or water (compound 52) and resuspended at a concentration of 1 mg/ml in a slurry of bone meal powder (Now Foods, Bloomingdale, Ill., USA) in PBS at 10 mg/ml. The suspension of drug/prodrug in bone meal powder was incubated at 37° C. for 1 h to allow for binding, and centrifuged at 13 000 rpm for 2 min, before recovering the supernatant. The bone meal powder pellet was then washed three times with 1 ml of PBS. All supernatants were saved and assessed for fluoroquinolone content by fluorescence measurements at excitation/emission wavelengths of 280/465 nm. The amount of fluoroquinolone was determined from standard curves generated for each experiment. Amount of drug/prodrug bound to bone powder was deduced from the difference between the input amount (typically 1 mg) and the amount recovered in the supernatants after binding. In all binding experiments, >99% of input drug was recovered in the supernatant for the parent drugs.

Data set [3] can be described thus: Regeneration of drug from bone powder-bound prodrug. In kind it is in vitro ADME. The conditions noted are these: for effect of the medium (presence or absence of serum) on regeneration rate: PBS vs serum; for drug released from the bone matter after 7 days of incubation, in words / drug released from the bone matter after 24 h, in words: medium not stated. As for the experimental part:
Amounts of drug “regenerated” from the phosphonated parent prodrug were measured as follows. Washed bone powder-bound prodrugs from the above section were resuspended in 400 μL PBS or in 400 μL 50% (v/v in PBS) human or rat serum. […] Methanol (5× volume relative to supernatant) was added to each supernatant and the mixture was vortexed on a floor model vortex for 15 min to extract freed fluoroquinolone. The mixture was then centrifuged at 10 000 rpm for 15 min to pellet the insoluble material. The supernatant containing the extracted fluoroquinolone was recovered and evaporated to dryness in a speed vac. The dried pellets were resuspended in PBS and the amount of fluoroquinolone was determined by fluorescence measurements as described above. The percentage of drug regenerated was deduced from the difference between amount of bound prodrug and the amount of regenerated drug. The identity of regenerated drug was deduced by MIC determination; MICs of regenerated material matched those of parent drugs but not those of prodrugs.

The test system of data set [4] is Hela cells. Description: Cytotoxicity assay (MTS reduction). To be noted: concentrations up to 100 μM, 18 h, MTS reagent; data not shown. Type of data set: cell-based. As for the experimental part: Selected compounds were also tested for their ability to inhibit growth of mammalian cells so as to ascertain levels of cytotoxicity to the mammalian host, via an assay measuring the biological reduction of the inner salt of (3-(4,5-dimethylthiazol-2-yl)-5-(3-carboxymethoxyphenyl)-2-(4-sulfophenyl)-2H-tetrazolium (MTS reagent). Assays were performed in 96-well microtiter plates. Briefly, compounds at 100, 50, 25, and 12.5 μM concentrations were incubated with 2×10^4 Hela cells per well in Dulbecco's Modified Eagle Medium (Invitrogen Corporation) containing 1% Bovine Growth Serum (HyClone) for 18 h at 37° C. under 5% CO2.
(Tetrazolium dyes change colour on reduction, which living cells bring about.)

Data set [5] deals with S. aureus strains ATCC13709 and RN4220. As to the kind of experiment: microbe, parasite or virus in culture. In kind it is cell-based. To be noted: Staphylococcus aureus, ATCC13709; CAMHB, 37° C., 18 h; data not shown; read-out: minimum inhibitory concentration (MIC). As for the experimental part: Susceptibility of S. aureus strains ATCC13709 and RN4220 to the commercial antibiotics and synthesized compounds was determined by following the guidelines set by the Clinical and Laboratory Standards Institute (formerly the National Committee for Clinical Laboratory Standards) (M26-A). Compounds were diluted two-fold serially in DMSO and transferred to cation-adjusted Mueller Hinton broth (CAMHB; Becton Dickinson). 50 μL of compounds diluted in CAMHB was mixed with 100 μL of bacteria diluted in CAMHB in 96-well microtiter plates. The final number of micro-organisms in the assay was 5×10^5 c.f.u. per mL and the final concentration of DMSO in the assay was 1.25%. Assays were set up in duplicate and incubated at 37° C. for 18 h. The concentration of compound that inhibited visible growth was reported as the minimum inhibitory concentration (MIC).

The values that follow come from patent US20080287396A1, “Phosphonated Fluoroquinolones, Antibacterial Analogs Thereof, and Methods for the Prevention and Treatment of Bone and Joint Infections” (TARGANTA THERAPEUTICA INC., priority 2005, published 2008).

Values after ≈ are worked out from the molar mass of the structure shown. “Also recorded” adds a separate entry of the source.

Regarding `COc1c(N2CCN(C(=O)OC(C)OC(=O)CCCC(=O)NC(P(=O)(O)O)P(=O)(O)O)C(C)C2)c(F)cc2c(=O)c(C(=O)O)cn(C3CC3)c12` (centres unmarked) [Compound 39], in data set [1] (20 mg/kg IV, 3 days prior to infection), the “Measured bacterial titer (Log CFU/g of bone) Test compound” value is 4.63 ± 0.39 Log CFU/g of bone. Moreover, the “prophylactic effect in rat model of bone infection, in words” value in data set [1] is reported as “unable to produce a positive result in vivo”. Also, in data set [2], the “Binding to bone (%) Fluorescence” value was found to be 94.3%. In addition, in data set [3], the “effect of the medium (presence or absence of serum) on regeneration rate” value (shortened to “effect of the medium”) is “fairly similar rates”. In addition, the cytotoxicity entry in data set [4] was “no signs of any cytotoxicity”.

`COc1c(N2CCN(C(=O)CC(C)(C)c3cc(P(=O)(O)CP(=O)(O)O)ccc3OC(C)=O)C(C)C2)c(F)cc2c(=O)c(C(=O)O)cn(C3CC3)c12` (centres unmarked) [Compound 141]: the “Measured bacterial titer (Log CFU/g of bone) Test compound” value in data set [1] (45.4 mg/kg IV, 2 days prior to infection) is 2.40 ± 0.44 Log CFU/g of bone. Besides, the “prophylactic effect in rat model of bone infection, in words” value in data set [1] was “efficient prophylactic effect”. Further, the MIC in data set [5] turned out to be 4 µg/mL (≈ 5.32 µM). In data set [2], the “Binding to bone (%) Fluorescence” value amounted to 36.6%. Besides, the “binding to osseous matter, in words” value in data set [2] (bisphosphonates bearing three hydroxy groups) is listed as “less effectively bound”. In data set [3], the “effect of the medium” value is reported as “fairly similar rates”.

With `COc1c(N2C[C@@H]3CCCN[C@@H]3C2)c(F)cc2c(=O)c(C(=O)OCCCC(P(=O)(O)O)P(=O)(O)O)cn(C3CC3)c12` [Compound 14, 4,4-bisphosphonobutyl 7-((4aS,7aS)-octahydropyrrolo[3,4-b]pyridin-6-yl)-1-cyclopropyl-6-fluoro-1,4-dihydro-8-methoxy-4-oxoquinoline-3-carboxylate], the “Binding to bone (%) Fluorescence” value in data set [2] was 93.8%. The “drug released from the bone matter after 7 days of incubation, in words” value in data set [3] is “signs of drug release”. The cytotoxicity entry in data set [4] is “no signs of any cytotoxicity”.

With `O=C(O)c1cn(C2CC2)c2cc(N3CCN(CC(P(=O)(O)O)P(=O)(O)O)CC3)c(F)cc2c1=O` [Compound 8, 7-(4-(2,2-bisphosphonoethyl)piperazin-1-yl)-1-cyclopropyl-6-fluoro-1,4-dihydro-4-oxoquinoline-3-carboxylic acid], in data set [2], the “Binding to bone (%) Fluorescence” value was 99.6%. For the same compound, the “drug released from the bone matter after 24 h, in words” value in data set [3] is “not measurable amount of drug released”. Moreover, the cytotoxicity entry in data set [4] is reported as “no signs of any cytotoxicity”.

Regarding `COc1c(N2C[C@@H]3CCCN(CC(P(=O)(O)O)P(=O)(O)O)[C@@H]3C2)c(F)cc2c(=O)c(C(=O)O)cn(C3CC3)c12` [Compound 5, 7-((4aS,7aS)-1-(2,2-bisphosphonoethyl)-octahydropyrrolo[3,4-b]pyridin-6-yl)-1-cyclopropyl-6-fluoro-1,4-dihydro-8-methoxy-4-oxoquinoline-3-carboxylic acid], the “Binding to bone (%) Fluorescence” value in data set [2] is given as 92.2%. Further, in data set [3], the “drug released from the bone matter after 24 h, in words” value is given as “not measurable amount of drug released” and the “drug released from the bone matter after 7 days of incubation, in words” value is reported as “only trace amounts”. In addition, the cytotoxicity result in data set [4] was “no signs of any cytotoxicity”.

With `COc1c(N2C[C@@H]3CCCN[C@@H]3C2)c(F)cc2c(=O)c(C(=O)O)cn(C3CC3)c12` [Compound 3, Moxifloxacin, reference compound], the entries for the “bacterial titer compared with untreated group” value in data set [1] and in data set [1] (listed as moxifloxacin 3) were “significant decrease in the bacterial titer” and “significant (p<0.05) decrease in bacterial titer; also recorded: significant (p-value ≦0.0002) decrease in bacterial titer”, respectively. In data set [1] (used five or two days prior to infection), the “prophylaxis by the parent drug, in words” value is given as “unable to exhibit such efficient prophylaxis”. The MIC in data set [5] fell in the range of 0.5 to 1 µg/mL (≈ 1.25 to 2.49 µM). In data set [2], the “Binding to bone (%) Fluorescence” value is 0%.

As to `COc1c(N2CCNC(C)C2)c(F)cc2c(=O)c(C(=O)O)cn(C3CC3)c12` (centres unmarked) [Compound 15, Gatifloxacin, reference compound], in data set [1] (10 mg/Kg (equivalent dose) 48 h prior to infection (FIG. 8)), the “prophylactic effect on bacterial titer” value is recorded as “without effect”. Moreover, in data set [5], the MIC is 0.5 to 1 µg/mL (≈ 1.33 to 2.66 µM). Also, the “Binding to bone (%) Fluorescence” value in data set [2] is given as 0%.

For `COc1c(N2CCNC(C)C2)c(F)cc2c(=O)c(C(=O)OCC(=O)Nc3ccc(CC(P(=O)(O)O)P(=O)(O)O)cc3)cn(C3CC3)c12` (centres unmarked) [Compound 64, (4-(2,2-Bisphosphonoethyl)phenylcarbamoyl)methyl 7-(3-methylpiperazin-1-yl)-1-cyclopropyl-6-fluoro-1,4-dihydro-8-methoxy-4-oxoquinoline-3-carboxylate], the “Binding to bone (%) Fluorescence” value in data set [2] stood at 88.9%. Further, the “effect of the medium” value in data set [3] is given as “fairly similar rates”. Besides, the cytotoxicity entry in data set [4] was “no signs of any cytotoxicity”.
